Measurements published in PubChem BioAssay AID602487 (The Scripps Research Institute Molecular Screening Center, 2012).
Active and inactive are the calls of the source. The rule behind the calls is not given here.

System: SARS coronavirus 3C-like protease (3CLpro)
Test: SARS 3CLpro protease inhibitors, late-stage follow-up, biochemical, fluorescence, single concentration, set 5 (AID 602487)
Conditions: purified 3CLpro, fluorogenic substrate cleavage; at 100 µM; active compounds read high

| SMILES | inhibition |
| --- | --- |
| CC(C)C(=O)Nc1ccc(N(Cc2ccsc2)C(=O)Cn2cc(-c3ccccc3)nn2)cc1 | 3.7% (inactive) |
| CC(C)C(=O)Nc1ccc(N(Cc2ccsc2)C(=O)Cn2ccnn2)cc1 | 26.1% (inactive) |
| CC(=O)Nc1ccc(N(C(=O)Cn2ccnn2)C(C(=O)NC(C)(C)C)c2ccsc2)cc1 (stereo not given) | 5.4% (inactive) |
| CC(C)C(=O)Nc1ccc(N(Cc2ccsc2)C(=O)Cn2cc([Si](C)(C)C)nn2)cc1 | 4.5% (inactive) |
| CC(=O)Nc1ccc(N(C(=O)Cn2cc([Si](C)(C)C)nn2)C(C(=O)NC(C)(C)C)c2ccsc2)cc1 (stereo not given) | -3.9% (inactive) |
